Data set [1] deals with SARS-CoV-2 viral main protease. Further details: method as in ref 36 = [36]. As to conditions: in silico finding; compounds from E. purpurea; cited from earlier work.
In data set [2] the test system is IL-6, IL-8, and TNF-α. The data set can be described thus: Cytokine determination by ELISA in RSV A2-infected cells. Format: cell-based. As to conditions: RSV A2 moi 1, 24 h, A18 25 mg/mL, BAY 11-7085 10 mg/mL (so in the source); for IL-6 production vs RSV-infected control cells: Hep-2, A549, J774A.1 cells; for TNF-α production vs RSV-infected control cells: J774A.1 macrophages; for IL-8 production vs RSV-infected control cells: epithelial cells (Hep-2, A549). On the technique in general: An ELISA detects its analyte on a solid surface through an enzyme-linked reagent.

For data set [3], the system named is NF-κB signaling pathway. The data set can be described thus: NF-κB-LUC reporter gene assay in RSV A2-infected cells. The data set is classed as cell-based. As to conditions: Hep-2, A549, J774A.1 cells infected with RSV A2 moi 1, 6 h; A18 25 μg/mL, BAY 11-7085 10 mg/mL (so in the source). (In general: Reporter assays use an easily measured gene product as a stand-in for the process of interest.)

Data set [4] has as its system IL-6, IL-8, and TNF-α. As to the kind of experiment: Cytokine determination by ELISA in TLR2/6 and TLR3 ligand-stimulated cells. The data set is classed as cell-based. The settings on record: A549, Hep-2, J774A.1; TLR2/6 and TLR3 ligands for 6 h / 8 h (Fig. S3); A18 25, BAY 11-7085 10.
For data set [5], the system named is SARS-CoV-2. The data set is classed as cell-based.
Data set [6] relates to SARS-CoV-2.
Data set [7] deals with SARS-CoV-2. As to the kind of experiment: microbe, parasite or virus in culture. As to conditions: Severe acute respiratory syndrome coronavirus 2, Calu-3, 24 h.
For data set [8], the system named is Canine Coronavirus.
For data set [9], the system named is IL-6, IL-4, IL-17A, IFN-γ. As to the kind of experiment: Pulmonary cytokines qRT-PCR in RSV-infected mice. Format: in vivo, Balb/C mice. As to conditions: RSV-infected mice treated with A18, day 8 p.i. (Quantitative PCR measures a nucleic acid by following its amplification.)
For data set [10], the system named is HSV-1 KOS.
Data set [11] deals with RSV Line 19. As to the kind of experiment: microbe, parasite or virus in culture. As to conditions: human respiratory syncytial virus.
In data set [12] the test system is RSV A2. As to the kind of experiment: Virus yield inhibition assay, RSV A2. Format: cell-based. As to conditions: human respiratory syncytial virus, moi 0.1, 24 h, virus yield by plaque assay.
Data set [13] relates to SARS-CoV-2 spike protein. Details: method as in ref 37 = [37]. As to conditions: molecular docking and dynamics simulation; cited from earlier work.
The subject of data set [14] is HSV-1 B2006. As to the kind of experiment: microbe, parasite or virus in culture. As to conditions: Human alphaherpesvirus 1, HCLE, 24 h.
A short description of data set [15]: in vitro. Format: cell-based. As to conditions: human (HEp-2, A549, HCLE, Calu-3); cat (CRFK).
For data set [16], the system named is HSV-1 B2006.
For data set [17], the system named is HSV-1 KOS. As to the kind of experiment: Adsorption and penetration assay, HSV-1 KOS. The data set is classed as cell-based. As to conditions: HCLE cells.
For data set [18], the system named is RSV A2. The data set can be described thus: Immunofluorescence, RSV gF expression in infected cells. Format: cell-based, Human RSV. As to conditions: RSV A2 moi 1, 25 μg/mL of A18, 24 h p.i.
The test system of data set [19] is RSV line 19 and A2. The data set can be described thus: Pulmonary RSV infection in mouse model. The data set is classed as in vivo, Balb/C mice.
Data set [20] has as its system airway hyperreactivity (AHR). Further details: method as in ref 14 = [14]. The settings on record: i.p. (6 mg/kg/day) and i.n. (3 mg/kg/day), mouse models of steroid-resistant and severe asthma; cited from earlier work.
Data set [21] has as its system HSV-1 Field.
Data set [22] deals with HSV-1 KOS. As to the kind of experiment: microbe, parasite or virus in culture. As to conditions: Human alphaherpesvirus 1, HCLE, 24 h.
The subject of data set [23] is RSV A2. The data set can be described thus: RSV qRT-PCR assay (viral RNA synthesis). The settings on record: A549 and Hep-2 cells, A18 25 mg/mL (so in the source), 6 h, 15 h and 24 h p.i. Format: cell-based, Human RSV.
Data set [24] deals with Canine Coronavirus. The data set can be described thus: microbe, parasite or virus in culture. As to conditions: Alphacoronavirus 1, CRFK, 24 h.
The test system of data set [25] is SARS-CoV-2. As to the kind of experiment: Adsorption and penetration assay, SARS-CoV-2. The data set is classed as cell-based. As to conditions: calu-3 cells.
The test system of data set [26] is HSV-1 Field. The data set can be described thus: microbe, parasite or virus in culture. As to conditions: Human alphaherpesvirus 1, HCLE, 24 h.
The subject of data set [27] is RSV A2. As to the kind of experiment: Adsorption and penetration assay, RSV A2. Format: cell-based, Human RSV. The settings on record: A549 cells.

Take `O=C(O)CC(=O)OC[C@H]1O[C@@H](Oc2cc3c(O)cc(O)cc3[o+]c2-c2ccc(O)c(O)c2)[C@H](O)[C@@H](O)[C@@H]1O` [Cyanidin 3-(6″-malonylglucoside)]: the “inhibitory potential against SARS-CoV-2 via inhibition of viral main protease” value in data set [1] was “good inhibitory potential”.
`OC[C@H]1O[C@@H](Oc2cc3c(O[C@@H]4O[C@H](CO)[C@@H](O)[C@H](O)[C@H]4O)cc(O)cc3[o+]c2-c2ccc(O)c(O)c2)[C@H](O)[C@@H](O)[C@@H]1O` [Cyanin]: in data set [1], the “inhibitory potential against SARS-CoV-2 via inhibition of viral main protease” value was “good inhibitory potential”.
On to `CC(C)(C)c1ccc(S(=O)(=O)/C=C/C#N)cc1` [BAY 11-7085, reference compound], for which, in data set [2], the “IL-6 production vs RSV-infected control cells” value was “significantly reduced”, the “TNF-α production vs RSV-infected control cells” value was “significantly reduced” and the “IL-8 production vs RSV-infected control cells” value is listed as “significantly reduced”. The “NF-κB activation (NF-κB-LUC luciferase activity)” value in data set [3] is recorded as “strongly inhibited”. In addition, in data set [4], the “IL-6 production in TLR ligand-stimulated cells” value is “significantly inhibited”, the “IL-8 production in TLR ligand-stimulated cells” value is recorded as “significantly inhibited” and the “TNF-a production in TLR ligand-stimulated cells” value is “significantly inhibited”.
In the case of `Oc1cc(O)c2cc(O)c(-c3ccc(O)c(O)c3)[o+]c2c1` [A18, Cyanidin chloride], the “infected and treated cells expressing Spike protein” value in data set [5] is 7%. The “IL-6 production vs RSV-infected control cells” value in data set [2] is “significantly reduced”. In data set [2], the “TNF-α production vs RSV-infected control cells” value is given as “significantly reduced”. In addition, the “IL-8 production vs RSV-infected control cells” value in data set [2] is “significantly reduced”. The “SI (ratio CC50/EC50)” value in data set [6] was determined as 23; in [8] it was 26; in data set [10] it was 46; in data set [16], 43; in [21], 26. In addition, the concentration giving a half-maximal response (EC50) (commonly the midpoint of the concentration-response curve) was 8.9 ± 0.09 µg/mL in data set [7]; 9.8 ± 0.08 µg/mL in [11] (A549, 24 h); 8 ± 0.1 µg/mL in data set [11] (HEp-2, 24 h); 8.5 ± 0.1 µg/mL in data set [12] (RSV A2 in A549 cells); 3 ± 0.06 µg/mL in [12] (RSV A2 in HEp-2 cells); 4.6 ± 0.05 µg/mL in data set [14]. Besides, the EC50 is 5.5 ± 0.1 µg/mL in [22], 7.7 ± 0.1 µg/mL in data set [24] and 7.6 ± 0.05 µg/mL in [26]. Moreover, in data set [9], the “pulmonary IFN-g levels, treated vs not treated” value is listed as “did not observe statistical differences”. In addition, the “pulmonary IL-4 gene expression vs untreated infected animals” value in data set [9] is on record as “significantly lower levels”. For the same molecule, the “pulmonary IL-6 gene expression vs untreated infected animals” value in data set [9] is listed as “significantly lower levels”. Also, the “pulmonary IL-17A gene expression vs untreated infected animals” value in [9] is on record as “significantly lower levels”. For the same molecule, the “predicted interaction with SARS-CoV-2 spike protein” value in data set [13] is “interacts with spike protein”. Moreover, in data set [15], the CC50 (in general, the concentration giving 50% cytotoxicity) at 24 h is more than 200 µg/mL. Besides, the “virus adsorption: virus yield after treatment during binding stage” value in [17] (HSV-1 KOS moi 1, 25 μg/mL of A18, 1 h at 4 °C) was “significant reduction of viral plaque formation”; in data set [25] (SARS-CoV-2 moi 1, 25 μg/mL of A18, 1 h at 4 °C), “significant reduction of viral plaque formation”; in data set [27] (RSV A2 moi 1, 25 μg/mL of A18, 1 h at 4 °C), “significant reduction of viral plaque formation”. The “virus internalization: viral infectivity after treatment during internalization” value in data set [17] (HSV-1 KOS moi 1, 25 μg/mL of A18, 2 h at 37 °C) was “did not reduce viral infectivity”; in data set [25] (SARS-CoV-2 moi 1, 25 μg/mL of A18, 2 h at 37 °C), “did not reduce viral infectivity”; in data set [27] (RSV A2 moi 1, 25 μg/mL of A18, 2 h at 37 °C), “did not reduce viral infectivity”. Further, the “infected and treated cells expressing gF” value in data set [18] (A549 cells, infected control 93%) was determined as 23%; in data set [18] (HEp-2 cells, infected control 96%) it was 10%. In data set [19] (Balb/c mice, RSV A2 and line 19, A18 6 mg/kg i.p. or 3 mg/kg i.n. daily days 0-4, day 2 p.i. and entire course), the “weight loss vs untreated infected controls” value was “significantly less weight loss”. In data set [19] (Balb/c mice, RSV A2 and line 19, A18 6 mg/kg i.p. or 3 mg/kg i.n. daily, day 4 p.i.), the “RSV titers in the lung vs untreated animals” value was “significantly lower”. In addition, the “lung histology, semiquantitative histological scoring (Inflammation Index)” value in data set [19] (RSV A2 and line 19 infected mice, H&E-stained lungs, day 8 p.i.) is on record as “significantly reduced RSV-induced pathological damage”. Further, the “airway hyperreactivity (AHR)” value in data set [20] is recorded as “alleviated airway hyperreactivity (AHR)”. Also, in data set [3], the “NF-κB activation (NF-κB-LUC luciferase activity)” value was “strongly inhibited”. Further, the “relative contents of viral RNA vs untreated infected cells” value in data set [23] is recorded as “significantly reduced”. Also, the “IL-6 production in TLR ligand-stimulated cells” value in [4] was “significantly inhibited”. The “IL-8 production in TLR ligand-stimulated cells” value in [4] is “significantly inhibited”. The “TNF-a production in TLR ligand-stimulated cells” value in data set [4] is “significantly inhibited”.

The values are drawn from PMC10143848 (Viruses, 2023).
